System: Rattus norvegicus
Assay: Maximal blood concentration after oral administration of a 30 umol/kg dose of compound
Assay type: ADME, organism-based
Set-up: dose 30 umol/kg, route oral
Conditions: in vivo

Cmax | SMILES
5.5 nmol/g | CN1C(C(=O)Nc2cccc[n+]2C)=C(O)c2ccccc2S1(=O)=O.[I-]
47.8 nmol/g | CN1C(C(=O)Nc2ccccn2)=C(O)c2ccccc2S1(=O)=O [PIROXICAM]
